Results from patent US20100189813A1, “Cidal formulations and methods of use” (priority 2006, published 2010).

How the values were obtained:
Anopheles mosquitoes = assay: Anopheles mosquito larvae survivorship on exposure to copper; type: in vivo
From the text: A solution in water of copper sulphate pentahydrate at 5 weight percent was used to treat Anopheles mosquitoes. The mosquitoes were wild caught and they were not separated by larval stage so there is some variability in the response to the test. The data is based upon 1000 larvae per treatment. Amounts of copper were used at 0.37 ppm, 0.88 ppm, 1.47 ppm, and 8.4 ppm. […] The Y-axis is the percentage of survivorship and the X-axis is the number of days of exposure.
The tests were repeated wherein a copper compound in inert carrier was treated with a detergent as an additive to determine if the additive increased the efficacy of the copper. […] The first control is FIG. 2, Stage 1 larvae, the duplicate control, Stage 1 larvae, is FIG. 3 wherein, in both Figures, the Y-axis is the percentage of survivorship and the X-axis is the number of days of exposure.
Kathon was added at 0.02 weight percent. […] The Y-axis is the percentage of survivorship and the X-axis is the number of days of exposure.
The copper was used at the 0.25 ppm level. […] The Y-axis is the percentage of survivorship and the X-axis is the number of days of exposure.

aerial bacteria = assay: Agar growth media plates left open to the atmosphere for 6 hours (disinfectant efficacy), bacteria; type: cell-based; conditions: copper sulphate at 5%; plates open 6 hours
Experimental: (§1) 1. The Unformulated composition containing 5 weight percent of copper sulphate in an inert carrier was added directly to growth media, namely, Agar, in order to evaluate it's efficacy as a disinfectant. 2. The same solution was added to bacteria and its growth was monitored by optical density readings as a function of time. 3. The same solution alone or in combination with a detergent was added to bacteria or fungi and incubated for 10 minutes or 60 minutes and the incubation mix was plated on to agar growth media in order to estimate survival.
(§2) a. The Unformulated composition at different concentrations was added to live bacterial agar media and the agar plates were exposed to the atmosphere by keeping the Petri plates open to the atmosphere for 6 hours. By doing this it was expected to allow aerial bacteria to grow in the plates.
(§3) Control plates without the Unformulated composition contained confluent colonies of bacteria (infinite) and fungi.

fungi = assay: Agar growth media plates left open to the atmosphere for 6 hours (disinfectant efficacy), fungi; type: cell-based; conditions: copper sulphate at 5%; plates open 6 hours
Experimental: as §1, §2, §3

E. Coli bacteria = assay: Incubation for 10 or 60 minutes, then plating on agar to estimate survival, bacteria; type: cell-based; conditions: detergent alone
Experimental: Three different types of experiments were conducted in order to assess the efficacy of an inventive solution on E. Coli bacteria and fungi.
as §1
c. Bacteria with the Unformulated composition was incubated for 10 minutes or 60 minutes before plating them. […] Because of the closeness of the data points, the inventors herein would point out that the top line is the control, the next set of lines lower are constituted of 0.1, 0.2, 0.3, 0.4, 0.5 of ET and 1 ml Matrix, while the bottom set of lines are constituted of 2 ml Matrix, 3 ml Matrix, 3 ml Matrix, 4 ml Matrix, and 5 ml of Matrix.
4. The effect of adding detergents, that is, sodium dodecyl sulfate to the Unformulated composition.
The detergent alone allowed growth up to a concentration of 0.2%. […]

| Compound | survivorship (Anopheles mosquitoes; 0.37 ppm copper, wild caught larvae not separated by larval stage, 1000 larvae per treatment) | no-effect dose (Anopheles mosquitoes; copper, first part of the experiment, no detergent) | death of larvae (Anopheles mosquitoes; more than 0.8 ppm copper (0.88, 1.47, 8.4 ppm tested), by day 3, wild caught larvae) | bacterial growth on plates (aerial bacteria) | fungal growth on plates (fungi) | concentration at which bacterial growth was still allowed (E. Coli bacteria) |
| --- | --- | --- | --- | --- | --- | --- |
| O.O.O.O.O.O=S(=O)([O-])[O-].[Cu+2] [copper sulphate pentahydrate] | ~100% | 0.37 ppm | died by day 3 | allowed bacterial growth | allowed no fungal growth |  |
| CCCCCCCCCCCCOS(=O)(=O)[O-].[Na+] [sodium dodecyl sulfate] |  |  |  |  |  | ≤ 0.2% |
